Results as given in patent US5912247A, “Quinazoline compound and anti-tumor agent containing said compound as an active ingredient” (Kanebo, Ltd., priority 1995, dated 1999).
Counter-ions that a name gives are not always drawn.

Key:
[1] = system: St-4 solid tumor (human gastric cancer transplantable to nude mouse); assay: Anti-tumor activity against human gastric cancer St-4 (solid tumor) transplanted to nude mouse; type: in vivo, human (in male BALB/cA JCI-nu nude mice)
Text: Anti-tumor activity against human gastric cancer St-4 (solid tumor) transplanted to nude mouse: a) Materials: Test Animal: Male BALB/cA JCI-nu nude mice (six week old, six mice per group) Tumor: St-4 solid tumor (human gastric cancer transplantable to nude mouse) b) Test Method: St-4 solid tumor was cut to about 3 mm cubic, and the fragments were subcutaneously transplanted into the back at one side of the nude mice with a trockar. Ten days after the transplantation, the longitudinal size (L) and the size of the width direction (W) of the tumor were measured. The tumor weight was calculated by the formula: L×W×W/2, and when the weight of the tumor reached 100 mg to 300 mg, the mice were randomized. To the mice in test groups, the test compound was orally administered once a day for 40 days. The test compounds of this invention were administered in an amount of 30 mg/kg or 40 mg/kg in the form of a solution in distilled water, and No. 5666 was administered in an amount of 30 mg/kg or 100 mg/kg in the form of a suspension in 5% arabic gum solution. After the administration of the test compounds, the longitudinal size and the size in the width direction of the tumor were measured, and then the weight of tumor was calculated. The ratio of the tumor weight after treated with test compounds to the tumor weight before administration of test compounds (i.e. the relative tumor weight) was determined. As to the control group, the relative tumor weight was also determined likewise. The anti-tumor activity was evaluated in the same manner as described in Ann. Clin. Lab. Sci., 8 (1), 50 (1978). That is, the ratio of the relative tumor weight in the test group (T) to that in the control group (C) [T/C (%)] was calculated, and when the minimum of the ratio [Min.

[2] = system: Colon 26 solid tumor; assay: Inhibitory activity of dye accumulation in the solid tumor tissue (inhibition of the tumor blood flow); type: in vivo, Male BALB/c mice; design: key to Inhibitory activity of dye accumulation into solid tumor: +: The average absorbance in the test group is significantly smaller than the average absorbance in the control group.; -: There is no significant difference in the average absorbance between the test group and the control group; settings: for Inhibitory activity of dye accumulation into solid tumor: intravenous, Evans blue 1 hour after administration
Method: Inhibitory activity of dye accumulation in the solid tumor tissue (inhibition of the tumor blood flow): a) Materials: Test Animal: Male BALB/c mice (weighing 21-27 g, six mice per group) Tumor: Colon 26 solid tumor b) Test Method: Colon 26 solid tumor was cut in a size of about 1 mm square. The pieces of solid tumor were treated with a 0.25% collagenase solution and 0.02% deoxyribonuclease solution at 37° C. for 1.5 hour to give a cell suspension of colon 26 solid tumor cells. The cell suspension was adjusted to 3×10^6 cells/ml and the cell suspension (100 μl) was subcutaneously inoculated on the right back of male BALB/c mice. Ten days after the transplantation, the longitudinal size of the tumor was measured, and when the longitudinal size of the tumor reached about 10 mm, the mice were randomized. To the mice in test groups, the test compound was intravenously administered in an amount of 10 mg/kg or 1.25 mg/kg. The test compound was administered in the form of a solution in saline (in the test solution of Test Compound BF and BK, an equimolar amount of fumaric acid was further added, and in the test solution of Test Compound BN, an equimolar amount of hydrochloric acid was further added). To the mice in the control group, only saline was administered intravenously. One hour after the administration, 3% Evans blue-saline solution was injected intravenously via the tail vein of the mice in a volume of 0.1 ml per 10 g of the body weight of mouse, and 5 minutes later the mice were killed by luxation of the cervical vertebrae. After removing the tumor, the tumor was weighed. To extract Evans blue, the tumor was suspensed in 0.5% aqueous sodium sulfate (1.5 ml per 1 g of the tumor) and acetone (3.5 ml per 1 g of tumor), and then the tumor was cut into small pieces. After allowing to stand at room temperature overnight, the suspension were centrifuged at 3,000 rpm for 10 minutes to extract Evans blue, and the absorbance of the supernatant was read at 630 nm. […] (-): There is no significant difference in the average absorbance between the test group and the control group.

[3] = Acute toxicity; settings: mouse, in vivo, one week observation
Method: Test Animal: Male ddY mice (5 week old, five mice per group)
To male ddY mice was administered a solution of a test compound in saline intravenously, or a solution of a test compound in distilled water orally. One week after the administration, the number of death of mice was counted, and the LD50 was calculated therefrom by a probit method.

[4] = system: test blood cell suspension; assay: Hemolytic activity; type: cell-based, Male Donryu rats; settings: 20 μg/ml
Method: (§1) Hemolytic activity: a) Materials: Test Animal: Male Donryu rats Test Compounds: The same as in Experiment 1 b) Test Method: Blood (about 6 ml or more) was collected from abdominal large vein of male Donryu rats, which was taken in a test tube containing dipotassium ethylenediamine tetraacetate (10 mg). The blood thus collected was divided into each 2 ml, which was centrifuged at 3,000 rpm for 5 minutes. After removing the supernatant, a 150 mM phosphate buffer (pH 7.4) (10 ml) was added thereto, and the mixture was mildly mixed. The mixture was centrifuged at 3,000 rpm for 5 minutes, followed by washing with the same phosphate buffer as above. This procedure was repeated twice. Finally, the same phosphate buffer was added thereto to prepare a test blood cell suspension. The test compound was dissolved in a saline solution in a concentration of 2 mg/ml in case of No. 5666, and of 20 mg/ml in case of the test compounds of this invention. […] Immediately after the incubation, the mixture was centrifuged at 3,000 rpm for 5 minutes, and the supernatant (each 200 μl) was added to a well of a 96 well microplate (an immunoassay plate with plane bottom), and the absorbance (OD: optical density) was read with a microplate reader (at a wavelength of 550 nm). […] The hemolytic rate was calculated by the following equation: [formula] […]

[5] = Hemolytic activity; type: cell-based, Male Donryu rats; settings: rat, red blood cells; 20 μg/ml, 37° C., 60 minutes; read-out: hemolytic ratio
Method: as §1

| Compound | Inhibitory activity of dye accumulation into solid tumor ([2]; 1.25 mg/kg) | Inhibitory activity of dye accumulation into solid tumor ([2]; 10 mg/kg) | Evaluation ([1]; 30 mg/kg (po) (× 40 days)) | Min. T/C (%) ([1]; 30 mg/kg (po) (× 40 days)) | other results |
| --- | --- | --- | --- | --- | --- |
| CC(=O)O.O[C@@H]1COC[C@H]1Oc1nc(N2CCNCC2)nc2ccccc12 [Compound AI, 4-[(3R,4R)-(4-Hydroxytetrahydrofuran-3-yl)oxy]-2-(1-piperazinyl)quinazoline monoacetate] | + | + |  |  | Evaluation ([1]; 40 mg/kg (po) (× 40 days)): Effective (when the minimum of the ratio [Min. T/C (%)] was less than 42%, the test compound was evaluated as "effective"); Min. T/C (%) ([1]; 40 mg/kg (po) (× 40 days)): 31.7% |
| O[C@@H]1C[C@@H](Oc2nc(N3CCNCC3)nc3ccccc23)C[C@@H]1O [Compound AM, 4-[(t-3,t-4-Dihydroxycyclopentan-r-1-yl)oxy]-2-(1-piperazinyl)quinazoline monohydrochloride] | + | + | Effective (when the minimum of the ratio [Min. T/C (%)] was less than 42%, the test compound was evaluated as "effective") | 36.1 | LD50 at 168 h ([3]; Intravenous injection): 101 mg/kg; LD50 at 168 h ([3]; Oral administration): > 500 mg/kg |
| Cl.OC[C@@H](O)CCOc1nc(N2CCNCC2)nc2ccccc12 [Compound BI, 4-[(3S)-(3,4-Dihydroxybutan-1-yl)oxy]-2-(1-piperazinyl)quinazoline monohydrochloride] | + | + |  |  |  |
| Cl.OC[C@H](O)CCOc1nc(N2CCNCC2)nc2ccccc12 [Compound BJ, 4-[(3R)-(3,4-Dihydroxybutan-1-yl)oxy]-2-(1-piperazinyl)quinazoline monohydrochloride] | + | + | Effective (when the minimum of the ratio [Min. T/C (%)] was less than 42%, the test compound was evaluated as "effective") | 38.8 | LD50 at 168 h ([3]; Intravenous injection): 118 mg/kg; LD50 at 168 h ([3]; Oral administration): > 1000 mg/kg |
| Cl.OC[C@H](O)[C@@H](O)COc1nc(N2CCNCC2)nc2ccccc12 [Compound BL, 4-[(2S,3S)-(2,3,4-Trihydroxybutan-1-yl)oxy]-2-(1-piperazinyl)quinazoline monohydrochloride] | + | + |  |  |  |
| Cl.OC[C@@H](O)[C@H](O)COc1nc(N2CCNCC2)nc2ccccc12 [Compound BM, 4-[(2R,3R)-(2,3,4-Trihydroxybutan-1-yl)oxy]-2-(1-piperazinyl)quinazoline monohydrochloride] | + | + |  |  |  |
| OC[C@@H](O)COc1nc(N2CCNCC2)nc2ccccc12 [Compound BN, 4-[(2R)-(2,3-Dihydroxypropan-1-yl)oxy]-2-(1-piperazinyl)quinazoline] | + |  |  |  |  |
| C=CCN1CCN(c2nc(OCCCCC)c3ccccc3n2)CC1.O=C(O)/C=C/C(=O)O [No. 5666, 2-(4-Allylpiperazin-1-yl)-4-[(1-pentyl)oxy]-quinazoline monofumarate, reference compound] | - | + | Non-effective | 59.7 | Evaluation ([1]; 100 mg/kg (po) (× 40 days)): Effective (when the minimum of the ratio [Min. T/C (%)] was less than 42%, the test compound was evaluated as "effective"); Min. T/C (%) ([1]; 100 mg/kg (po) (× 40 days)): 29.9%; hemolytic activity (in words) [4]: induced hemolytic activity; hemolysis at 1 h [5]: 38%; inhibition of the flow of blood into tumor tissue / dye accumulation (in words) ([2]; mouse solid tumor (colon 26)): has such an inhibitory activity |
